Results on 18 compounds are retold here after patent US11701434B2, “Tertiary amino lipidated cationic peptides for nucleic acid delivery” (Nutcracker Therapeutics, Inc., priority 2018, dated 2023).

Data set [1] is described as follows: Dynamic light scattering (DLS) of Fluc mRNA/peptoid formulations: particle size and polydispersity. The data set is classed as physicochemical. The conditions noted are these: 5:1 mass ratio peptoid:cargo; for Size (volume average particle size/diameter): Fluc mRNA/peptoid complex; for Size PDI (size polydispersity index): Fluc mRNA/peptoid formulation. The method, then:
(§1) In standard formulations, the tertiary amino lipidated and/or PEGylated cationic peptide compound is dissolved in anhydrous ethanol at a concentration of 0.5 mg/mL (for in vitro experiments) or 5 mg/mL (for in vivo experiments). The resulting solutions are stable at room temperature, but should be stored at −20° C. The nucleic acid cargo is dissolved in DNAse or RNAse-free water at a final concentration of 0.2 mg/mL (for in vitro experiments) or 1 mg/mL (for in vivo experiments). These solutions should be stored at −20° C. or at −78° C. for longer time periods. To prepare nanoparticle formulations, the tertiary amino lipidated and/or PEGylated cationic peptide compound is mixed by pipetting with nucleic acid at a mass ratio between approximately 1:1 (peptide compound:cargo) and 20:1. Prior to formulation, tertiary amino lipidated and/or PEGylated cationic peptide compounds and cargo (such as nucleic acid) are diluted in ethanol and acidic buffer (PBS adjusted to pH 5.5 with 0.1 M HCl) respectively to a volume ratio of 1:3 and to target a final cargo concentration of approximately 0.05 mg/mL to 0.2 mg/mL. The exemplary amino lipidated cationic peptoids 1-36 described in Example 2 were combined with firefly luciferase (Flue) mRNA to form nanoparticle compositions to be evaluated for therapeutic and/or prophylactic purposes in vitro or in vivo. The formulations were prepared according to the protocol of Example 3 and mixed by simple pipetting. The mRNA/peptoid formulation at a 5:1 mass ratio of peptoid:cargo were evaluated by dynamic light scattering (DLS) in order to determine the volume average particle size/diameter (nm) of the mRNA/peptoid complex and the size polydispersity index (PDI) within the formulation. The percentage of mRNA encapsulation for each formulation of the exemplary compounds were determined by fluorescence of the Qubit RNA HS (Invitrogen) dye before and after lysis of particles by Triton X-100.

Data set [2] can be described thus: mRNA encapsulation by Qubit RNA HS dye fluorescence before and after Triton X-100 lysis. The data set is classed as physicochemical. The settings on record: Fluc mRNA/peptoid formulation, 5:1 mass ratio peptoid:cargo. The protocol:
as §1

Each structure is given as a SMILES string.

For `CCCCCCCCCCN(CC(N)=O)C(=O)CN(CCCCCCCCCC)C(=O)CN(CCc1ccccc1)C(=O)CN(CCc1ccccc1)C(=O)CN(CCN)C(=O)CN(CCc1ccccc1)C(=O)CN(CCc1ccccc1)C(=O)CNCCN` [Compound 10], in data set [1], the “Size (volume average particle size/diameter)” value was 157 nm and the “Size PDI (size polydispersity index)” value is reported as 0.009. Also, in data set [2], the “% Encapsulation (percentage of mRNA encapsulation)” value worked out at 92.6%.
The like results for `CCCCCCCCCCCCCCCCCCN(CC(N)=O)C(=O)CN(CCCCCCCCCCCCCCCCCC)C(=O)CN(CCc1ccccc1)C(=O)CN(CCc1ccccc1)C(=O)CN(CCN)C(=O)CN(CCc1ccccc1)C(=O)CN(CCc1ccccc1)C(=O)CN(CCN)C(=O)CN(CCc1ccccc1)C(=O)CN(CCc1ccccc1)C(=O)CNCCN` [Compound 5] were, in that order, 364.7 nm, 0.308 and 88.3%.
The corresponding values for `CCCCCCCCCCN(CC(N)=O)C(=O)CN(CCCCCCCCCC)C(=O)CN(CCCCCCCCCC)C(=O)CN(CCc1ccccc1)C(=O)CN(CCc1ccccc1)C(=O)CN(CCN)C(=O)CN(CCc1ccccc1)C(=O)CN(CCc1ccccc1)C(=O)CN(CCN)C(=O)CN(CCc1ccccc1)C(=O)CN(CCc1ccccc1)C(=O)CNCCN` [Compound 7] are 296.7 nm, 0.177 and 88.4%.
The like results for `CCCCCCCCCCCCN(CC(N)=O)C(=O)CN(CCCCCCCCCCCC)C(=O)CN(CCc1ccccc1)C(=O)CN(CCc1ccccc1)C(=O)CN(CCN)C(=O)CN(CCc1ccccc1)C(=O)CN(CCc1ccccc1)C(=O)CN(CCN)C(=O)CN(CCc1ccccc1)C(=O)CN(CCc1ccccc1)C(=O)CNCCN` [Compound 3] were, in that order, 255.3 nm, 0.247 and 95.9%.
For the compound `CCCCCCCCCCN(CC(N)=O)C(=O)CN(CCCCCCCCCC)C(=O)CN(CCc1ccccc1)C(=O)CN(CCc1ccccc1)C(=O)CN(CCN)C(=O)CN(CCc1ccccc1)C(=O)CN(CCc1ccccc1)C(=O)CN(CCN)C(=O)CN(CCc1ccccc1)C(=O)CN(CCc1ccccc1)C(=O)CN(CCN)C(=O)CN(CCc1ccccc1)C(=O)CN(CCc1ccccc1)C(=O)CNCCN` [Compound 11], in data set [1], the “Size (volume average particle size/diameter)” value is given as 354.9 nm and the “Size PDI (size polydispersity index)” value is listed as 0.038. The “% Encapsulation (percentage of mRNA encapsulation)” value in data set [2] is reported as 87.8%.
The like results for `CCCCCCCCCCN(CC(N)=O)C(=O)CN(CCCCCCCCCC)C(=O)CN(CCCCCCCCCC)C(=O)CN(CCCCCCCCCC)C(=O)CN(CCc1ccccc1)C(=O)CN(CCc1ccccc1)C(=O)CN(CCCN)C(=O)CN(CCc1ccccc1)C(=O)CN(CCc1ccccc1)C(=O)CN(CCCN)C(=O)CN(CCc1ccccc1)C(=O)CN(CCc1ccccc1)C(=O)CNCCCN` [Compound 28] were, in that order, 308 nm, 0.085 and 52.0%.
In the case of `CCCCCCCCCCCCN(CC(N)=O)C(=O)CN(CCCCCCCCCCCC)C(=O)CN(CCc1ccc(OC)cc1)C(=O)CN(CCc1ccc(OC)cc1)C(=O)CN(CCN)C(=O)CN(CCc1ccc(OC)cc1)C(=O)CN(CCc1ccc(OC)cc1)C(=O)CN(CCN)C(=O)CN(CCc1ccc(OC)cc1)C(=O)CN(CCc1ccc(OC)cc1)C(=O)CNCCN` [Compound 4], in data set [1], the “Size (volume average particle size/diameter)” value is reported as 326.7 nm and the “Size PDI (size polydispersity index)” value stood at 0.191. For the same compound, the “% Encapsulation (percentage of mRNA encapsulation)” value in data set [2] is 99.0%.
The corresponding values for `CCCCCCCCCCN(CC(=O)N(CCN)CC(=O)N(CCc1ccccc1)CC(=O)N(CCc1ccccc1)CC(=O)N(CCCCCCCCCC)CC(=O)N(CCN)CC(=O)N(CCc1ccccc1)CC(=O)N(CCc1ccccc1)CC(N)=O)C(=O)CN(CCc1ccccc1)C(=O)CN(CCc1ccccc1)C(=O)CNCCN` [Compound 17] are 472.8 nm, 0.37 and 90.3%.
The corresponding values for `CCCCCCCCCCN(CC(N)=O)C(=O)CN(CCCCCCCCCC)C(=O)CN(CCc1ccccc1)C(=O)CN(CCc1ccccc1)C(=O)CN(CC1CCNCC1)C(=O)CN(CCc1ccccc1)C(=O)CN(CCc1ccccc1)C(=O)CN(CC1CCNCC1)C(=O)CN(CCc1ccccc1)C(=O)CN(CCc1ccccc1)C(=O)CNCC1CCNCC1` [Compound 33] are 435.7 nm, 0.048 and 82.0%.
The like results for `CCCCCCCCCCN(CC(N)=O)C(=O)CN(CCCCCCCCCC)C(=O)CN(CCCCCCCCCC)C(=O)CN(CCCCCCCCCC)C(=O)CN(CCCCCCCCCC)C(=O)CN(CCc1ccccc1)C(=O)CN(CCc1ccccc1)C(=O)CN(CCN)C(=O)CN(CCc1ccccc1)C(=O)CN(CCc1ccccc1)C(=O)CNCCN` [Compound 20] were, in that order, 326.6 nm, 0.37 and 72.2%.
For the compound `CCCCCCCCCCN(CC(N)=O)C(=O)CN(CCCCCCCCCC)C(=O)CN(CCN)C(=O)CN(CCN)C(=O)CN(CCN)C(=O)CN(CCN)C(=O)CNCCN` [Compound 15], in data set [1], the “Size (volume average particle size/diameter)” value is recorded as 1064 nm and the “Size PDI (size polydispersity index)” value is 1. The “% Encapsulation (percentage of mRNA encapsulation)” value in data set [2] is listed as 76.9%.
In the case of `CCCCCCCCN(CC(N)=O)C(=O)CN(CCCCCCCC)C(=O)CN(CCc1ccccc1)C(=O)CN(CCc1ccccc1)C(=O)CN(CCN)C(=O)CN(CCc1ccccc1)C(=O)CN(CCc1ccccc1)C(=O)CN(CCN)C(=O)CN(CCc1ccccc1)C(=O)CN(CCc1ccccc1)C(=O)CNCCN` [Compound 1], in data set [1], the “Size (volume average particle size/diameter)” value is given as 356.9 nm and the “Size PDI (size polydispersity index)” value turned out to be 0.047. The “% Encapsulation (percentage of mRNA encapsulation)” value in data set [2] came out at 90.1%.
The like results for `CCCCCCCCCCN(CC(N)=O)C(=O)CN(CCCCCCCCCC)C(=O)CN(CCCCCCCCCC)C(=O)CN(CCCCCCCCCC)C(=O)CN(CCc1ccccc1)C(=O)CN(CCc1ccccc1)C(=O)CN(CCNC)C(=O)CN(CCc1ccccc1)C(=O)CN(CCc1ccccc1)C(=O)CN(CCNC)C(=O)CN(CCc1ccccc1)C(=O)CN(CCc1ccccc1)C(=O)CNCCNC` [Compound 25] were, in that order, 773.3 nm, 0.021 and 8.4%.
The corresponding values for `CCCCCCCCCCN(CC(N)=O)C(=O)CN(CCCCCCCCCC)C(=O)CN(CCN)C(=O)CN(CCN)C(=O)CNCCN` [Compound 14] are 554 nm, 0.233 and 77.3%.
Regarding `CCCCCCCCCCN(CC(N)=O)C(=O)CN(CCCCCCCCCC)C(=O)CN(CCc1ccccc1)C(=O)CN(CCc1ccccc1)C(=O)CNCCN` [Compound 9], in data set [1], the “Size (volume average particle size/diameter)” value worked out at 367.9 nm and the “Size PDI (size polydispersity index)” value is listed as 0.122. In addition, the “% Encapsulation (percentage of mRNA encapsulation)” value in data set [2] is recorded as 73.9%.
The like results for `CCCCCCCCCCN(CC(N)=O)C(=O)CN(CCCCCCCCCC)C(=O)CN(CCCCCCCCCC)C(=O)CN(CCCCCCCCCC)C(=O)CN(CCc1ccccc1)C(=O)CN(CCc1ccccc1)C(=O)CN(CC1CCNCC1)C(=O)CN(CCc1ccccc1)C(=O)CN(CCc1ccccc1)C(=O)CN(CC1CCNCC1)C(=O)CN(CCc1ccccc1)C(=O)CN(CCc1ccccc1)C(=O)CNCC1CCNCC1` [Compound 31] were, in that order, 348.5 nm, 0.404 and 35.7%.
`CCCCCCCCCCN(CC(N)=O)C(=O)CN(CCCCCCCCCC)C(=O)CN(CCCCCCCCCC)C(=O)CN(CCCCCCCCCC)C(=O)CN(CCCCCCCCCC)C(=O)CN(CCCCCCCCCC)C(=O)CN(CCCCCCCCCC)C(=O)CN(CCc1ccccc1)C(=O)CN(CCc1ccccc1)C(=O)CN(CCN)C(=O)CN(CCc1ccccc1)C(=O)CN(CCc1ccccc1)C(=O)CN(CCN)C(=O)CN(CCc1ccccc1)C(=O)CN(CCc1ccccc1)C(=O)CNCCN` [Compound 23]: the “% Encapsulation (percentage of mRNA encapsulation)” value in data set [2] is 3.9%.
Same read-out and setting: under `CCCCCCCCCCN(CC(N)=O)C(=O)CN(CCCCCCCCCC)C(=O)CN(CCCCCCCCCC)C(=O)CN(CCCCCCCCCC)C(=O)CN(CCc1ccccc1)C(=O)CN(CCc1ccccc1)C(=O)CN(CCNC)C(=O)CN(CCc1ccccc1)C(=O)CN(CCc1ccccc1)C(=O)CN(CCNC)C(=O)CN(CCc1ccccc1)C(=O)CN(CCc1ccccc1)C(=O)CN(CCNC)C(=O)CN(CCc1ccccc1)C(=O)CN(CCc1ccccc1)C(=O)CNCCNC` [Compound 26] stands 35.7%.
